Source: article PMC3218208 (Nature chemical biology, 2011)

Molecular target: Enzyme I (EI, PtsI) (Escherichia coli, UniProt P08839)
Assay: […] pyruvate/PEP isotope exchange assay with LC-MS/MS on purified enzyme
Format: biochemical

Ki: 1.3 ± 0.1 mM
Compound: O=C(O)CCC(=O)C(=O)O [αKG, α-ketoglutarate]
